Results reported in patent US20260232717A1, “PARENTERAL NUTRITION FORMULATION COMPRISING VITAMIN B12” (BAXTER INTERNATIONAL INC., priority 2020, published 2026).
Marks after values point to notes of the source that are not given here.

Experiments:
Type in all cases: physicochemical
[1] = Studies of cyanocobalamin in lipid emulsions (summary statement)
Method: (storage for 3 months at 40° C.), even though hydroxocobalamin seems to remain relatively stable for about 6 months at 40° C.

[2] = Stability of vitamins in 35% glucose solution during sterilization (Cycles 1-4) and storage; settings: for concentration, T1M40° C. / concentration, T3M40° C. / concentration, Cycle 3 T0 / concentration, T6M40° C., sum of cyanocobalamin and hydroxocobalamin / concentration, Cycle 4 T0 / concentration, Unsterilized T0 / concentration, T6M40° C.: 35% glucose solution; for concentration, T1M40° C.: 1 month 40° C.; for concentration, T3M40° C.: 3 months 40° C.; for concentration, Cycle 3 T0: Cycle 3 (water spray sterilization, Co = 25 minutes); for concentration, Cycle 3 T0 / concentration, Cycle 4 T0: after sterilization; for concentration, T6M40° C., sum of cyanocobalamin and hydroxocobalamin / concentration, T6M40° C.: 6 months 40° C.; for concentration, Cycle 4 T0: Cycle 4 (water spray sterilization, Co = 19 minutes); for concentration, Unsterilized T0: before sterilization
Method: (§1) For testing the stability of vitamin B12 in formulation as they are typically used in parenteral nutrition, a 35% glucose solution, a 14.2% amino acid formulation such as found, for example, in Olimel N9E (Baxter Int. Inc.), and a 20% lipid emulsion such as found in Clinoleic 20% (Baxter Int. Inc.) were supplemented with different vitamins combinations which always included vitamin B12. KC1 was added into the glucose solution to understand if it has an effect on the stability of vitamin B12. Vitamin B12 was introduced as […]. Ascorbyl palmitate was added to the lipid emulsion formulation as a stabilizing agent due to its antioxidant properties. In addition, two separate micellar solutions (“Vit A” and “Vit B”, see Table 5) comprising certain vitamins to be assessed with regard to degradation (B3, B6, B8, B9, B12, C) but formulated with different excipients as micellization agents were tested for vitamin B12 stability. Vit A consisted of a solution of mixed micelles with ascorbyl palmitate as a potential stability enhancer. Vit B was formulated with a mix of polysorbates, PEG and sorbitol to form micelles. The micellar solutions were prepared by mixing, under high speed, a solution composed of glycocholic acid and lecithins dissolved in water. In case of Vit B, the glycocholic acid and lecithin were replaced by PEG and polysorbate. All formulations were provided in standard flexible containers and overpouched with an aluminum overpouch for subsequent sterilization. For an overview over formulations and conditions see Table 5.
(§2) All samples were submitted to two different sterilization technologies. Steam sterilization targeting a Fo=8 min was. used for large volumes (400/800 ml, Cycle 2) and for small volumes (25/50 ml, Cycle 1) as lined out in Table 5 above. The same samples were sterilized by water spray sterilization with a serial tower continuous sterilization equipment with two different exposure times (Cycles 3 (25 min.) and 4 (19 min.)).
(§3) The vitamin recovery was then compared between the different sterilization cycles and formulations to understand the impact of the formulation and the sterilization technology used on their respective short- and long-term stability. Therefore, after sterilization, the samples were stored at 40° C./[…] for 6 months to evaluate the recovery of vitamin B12 at TIM, T3M and T6M. Besides, backup samples were stored at 5° C. Finally, some samples were also stored at 25° C./40% RH to provide for real time stability data.

[3] = Stability of vitamin B12 in 20% lipid emulsion with ascorbyl palmitate during sterilization (Cycles 1-4) and storage; settings: for concentration, T1M40° C.: 1 month 40° C.; for concentration, T6M40° C., sum of cyanocobalamin and hydroxocobalamin: 6 months 40° C.
Method: as §1, §2, §3
Vitamin B12 was also considerably degraded in the lipid emulsion (Tables 8 through 11). […] It should thus be avoided in formulations according to the invention.

[4] = Cycle 1 (steam sterilization), 25 ml
[5] = Cycle 2 (steam sterilization), 800 ml

| concentration, T1M40° C. [2, 4] [ng/mL] | concentration, T3M40° C. [2, 4] [ng/mL] | concentration, T1M40° C. [2, 5] [ng/mL] | concentration, T3M40° C. [2, 5] [ng/mL] | concentration, Cycle 3 T0 [2] [ng/mL] | concentration, T3M40° C. ([2]; Cycle 3 (water spray)) [ng/mL] | concentration, Cycle 4 T0 ([2]; 800 ml) [ng/mL] | concentration, T3M40° C. ([2]; Cycle 4 (water spray)) [ng/mL] | concentration, Unsterilized T0 ([2]; Table 6A (25 ml)) [ng/mL] | concentration, Unsterilized T0 ([2]; Table 6B (800 ml)) [ng/mL] | concentration, Unsterilized T0 ([2]; Table 7A) [ng/mL] | concentration, Unsterilized T0 ([2]; Table 7B, 800 ml) [ng/mL] | concentration, T6M40° C. ([2]; Cycle 3 (water spray)) [ng/mL] | concentration, T6M40° C. ([2]; Cycle 4 (water spray)) [ng/mL] | Compound | also measured |
| --- | --- | --- | --- | --- | --- | --- | --- | --- | --- | --- | --- | --- | --- | --- | --- |
|  |  |  |  |  |  |  |  |  |  |  |  |  |  | C/C1=C2/[N-][C@H]([C@H](CC(N)=O)[C@@]2(C)CCC(=O)NC[C@@H](C)OP(=O)([O-])O[C@H]2[C@@H](O)[C@@H](n3cnc4cc(C)c(C)cc43)O[C@@H]2CO)[C@]2(C)N=C(/C(C)=C3N=C(/C=C4N=C1[C@@H](CCC(N)=O)C\4(C)C)[C@@H](CCC(N)=O)[C@]\3(C)CC(N)=O)[C@@H](CCC(N)=O)[C@]2(C)CC(N)=O.[Co+3].[OH-] [hydroxocobalamin] | time hydroxocobalamin remains relatively stable ([1]; lipid emulsions, 40° C.): about 6 months |
| 4.5 | 3.7 | 4 | 3.6 | 5.1 | 4.1 | 5.2 | 4.1 | 6.2 | 6.2 | 6 | 6 |  |  | cobalamin [Batch B12] | concentration, T6M40° C., sum of cyanocobalamin and hydroxocobalamin ([2]; Cycle 3 (water spray)): 0.0023* mg/L; concentration, T6M40° C., sum of cyanocobalamin and hydroxocobalamin ([2]; Cycle 4 (water spray)): 0.0031* mg/L; concentration, Unsterilized T0 ([3]; 20% lipid emulsion with ascorbyl palmitate, Table 8, before sterilization): 15 ng/mL; concentration, T1M40° C. ([3]; 20% lipid emulsion, Cycle 1 (steam sterilization)): 4 ng/mL; concentration, T3M40° C. ([3]; 20% lipid emulsion, Cycle 1 (steam sterilization), 3 months 40° C.): <LOD; concentration, T1M40° C. ([3]; 20% lipid emulsion, Cycle 2 (steam sterilization)): <LOD; concentration, Cycle 2 T0 ([3]; 20% lipid emulsion, Cycle 2 (steam sterilization), after sterilization): 5 ng/mL; concentration, Cycle 3 T0 ([3]; 20% lipid emulsion, Cycle 3 (water spray sterilization), after sterilization): 5 ng/mL; concentration, T6M40° C., sum of cyanocobalamin and hydroxocobalamin ([3]; 20% lipid emulsion, Cycle 3 (water spray)): 3.7 ng/mL; concentration, Unsterilized T0 ([3]; 20% lipid emulsion, Table 10, before sterilization): 14 ng/mL; concentration, Unsterilized T0 ([3]; 20% lipid emulsion, Table 11, before sterilization): 14 ng/mL; concentration, T0 after sterilization ([3]; 20% lipid emulsion, Table 11, head 'Cycle 3', water spray sterilization with serial tower continuous equipment): 6 ng/mL; concentration, T6M40° C., sum of cyanocobalamin and hydroxocobalamin ([3]; 20% lipid emulsion, Table 11, head 'Cycle 3', water spray): 5.5 ng/mL |
| 49300 | 50200 | 50600 | 51200 | 50500 | 50300 | 50400 | 51000 | 51100 | 51100 | 52800 | 52800 | 48270 | 49350 | O=C(O)c1cccnc1 [Batch B3, niacin] |  |
| 6400 | 6500 | 5930 | 6000 | 6230 | 6100 | 6270 | 5900 | 6400 | 6400 | 6610 | 6610 | 6040 | 6030 | Cc1ncc(CO)c(CO)c1O [Batch B6, Pyridoxine] |  |
|  |  |  |  |  |  |  |  |  |  |  |  |  |  | cyanocobalamin | cyanocobalamin detection after 6 months ([2]; glucose solution, Cycles 1 and 2 (steam sterilization), FIG. 2): no cyanocobalamin can be detected; cyanocobalamin detection ([1]; lipid emulsions irrespective of oil source, pH or stabilizing agent, T3M40° C.): no more cyanocobalamin can be detected |
